Experimental data published in US20220143231A1, “MACROCYCLIC COMPOUNDS AND METHODS OF USE THEREOF” (Janssen Biotech, Inc., priority 2020, published 2022).

Assay: Chelation test with La^3+ by HPLC
Assay type: physicochemical
Conditions: FIGS. 1A-1B

chelation of La^3+ (shift in HPLC retention time after mixing) | Structure (SMILES)
rapid chelation | CC(C)CCC(c1cccc(C(=O)O)n1)N1CCOCCOCCN(Cc2cccc(C(=O)O)n2)CCOCCOCC1 (centres unmarked) [TOPA-[C7]-isopentyl, 6-((16-(1-(6-carboxypyridin-2-yl)-4-methylpentyl)-1,4,10,13-tetraoxa-7,16-diazacyclooctadecan-7-yl)methyl)picolinic acid]
rapid chelation | O=C(O)c1cccc(CN2CCOCCOCCN(C(c3ccccc3)c3cccc(C(=O)O)n3)CCOCCOCC2)n1 (centres unmarked) [TOPA-[C7]-phenyl, 6-((16-((6-carboxypyridin-2-yl)(phenyl)methyl)-1,4,10,13-tetraoxa-7,16-diazacyclooctadecan-7-yl)methyl)picolinic acid]
